The text below walks through data of paper PMC6333442, “Conserved allosteric pathways for activation of TRPV3 revealed through engineering vanilloid-sensitivity” (eLife, 2019).

“And” between values parts separate entries of the source, which are not always exact repeats. Equal values may be shown once.

The target of experiment [1] is T1, rat TRPV2-4M (Rattus norvegicus, UniProt Q9WUD2, F472S/L507M/L510T/Q530E).
T1 construct: expressed in transfected cells; host or cells: Xenopus laevis oocytes
T1 sequence (Q9WUD2 1-761 F472S/L507M/L510T/Q530E): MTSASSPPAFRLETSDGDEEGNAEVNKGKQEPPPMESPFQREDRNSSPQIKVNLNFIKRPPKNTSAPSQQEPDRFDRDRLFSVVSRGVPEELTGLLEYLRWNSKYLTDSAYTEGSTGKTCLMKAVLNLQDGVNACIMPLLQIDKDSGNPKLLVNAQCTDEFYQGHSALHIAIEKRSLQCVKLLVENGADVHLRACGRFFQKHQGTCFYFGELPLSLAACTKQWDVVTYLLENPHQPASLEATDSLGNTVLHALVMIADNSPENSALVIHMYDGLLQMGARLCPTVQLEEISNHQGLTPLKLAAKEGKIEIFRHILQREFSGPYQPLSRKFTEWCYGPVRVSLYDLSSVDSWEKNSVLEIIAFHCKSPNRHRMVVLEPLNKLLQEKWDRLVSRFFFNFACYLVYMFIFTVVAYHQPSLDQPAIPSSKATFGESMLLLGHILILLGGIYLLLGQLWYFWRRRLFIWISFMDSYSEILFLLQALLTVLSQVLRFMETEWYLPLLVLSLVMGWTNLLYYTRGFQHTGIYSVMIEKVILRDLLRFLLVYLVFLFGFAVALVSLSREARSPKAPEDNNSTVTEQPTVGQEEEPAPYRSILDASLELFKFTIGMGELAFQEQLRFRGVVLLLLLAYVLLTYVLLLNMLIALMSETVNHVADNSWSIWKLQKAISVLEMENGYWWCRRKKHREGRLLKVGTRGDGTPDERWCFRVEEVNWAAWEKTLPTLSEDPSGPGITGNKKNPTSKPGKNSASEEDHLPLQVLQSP
Also on record: method as in Zhang et al., 2016. Conditions: ref Zhang et al., 2016; cited from earlier work.

Experiment [2] deals with TRPV3-6M + I595L, K611D, L635F, L639M or Y650F. The experiment in a line: Two-electrode voltage clamp, TRPV3-6M with individual pore mutations (weak RTx responders). Conditions: RTx 100 nM, room temperature; smaller than responses to 2-APB. Format: cell-based, mouse. As to the method:
(§1) All channel constructs were expressed in Xenopus laevis oocytes and studied using the two-electrode voltage clamp technique (TEVC) following 1–4 days of incubation after cRNA injection. The animal care and experimental procedures were performed in accordance with the Guide for the Care and Use of Laboratory Animals and were approved by the Animal Care and Use Committee of the National Institute of Neurological Disorders and Stroke (Animal protocol number 1253–17). Oocytes were removed surgically and incubated with agitation for 1 hr in a solution containing (in mM) 82.5 NaCl, 2.5 KCl, 1 MgCl2, 5 HEPES, pH 7.6 (with NaOH), and collagenase (2 mg/ml; Worthington Biochemical, Lakewood, NJ). Defolliculated oocytes were injected with cRNA for each of the constructs and incubated at 17°C in a solution containing (in mM) 96 NaCl, 2 KCl, 1 MgCl2, 1.8 CaCl2, 5 HEPES, pH 7.6 (with NaOH), and gentamicin (50 μg/ml, GIBCO-BRL, Gaithersburg, MD). Oocyte membrane voltage was controlled using an OC-725C oocyte clamp (Warner Instruments, Hamden, CT). Data were filtered at 1–3 kHz and digitized at 20 kHz using pClamp software (Molecular Devices, Sunnyvale, CA) and a Digidata 1440A digitizer (Axon Instruments). Microelectrode resistances were 0.1–1 MΩ when filled with 3 M KCl. For recording TRP channel currents, the external recording solution contained (in mM) 100 KCl, 10 HEPES, pH 7.6 (with KOH). […]

In experiment [3] the target is T1, rat TRPV2-4M. The experiment in a line: Two-electrode voltage clamp, TRPV2-4M in oocytes. The experiment is classed as cell-based. Conditions: RTx 100 nM, room temperature, ±60 mV. On the procedure: as §1
On the technique in general: Two-electrode voltage clamp holds a large cell at a set potential and records current.

Experiment [4] relates to TRPV3 single point mutants (V587L, F625L, F656I and F666Y). Conditions: 2-APB 3 mM, room temperature. As to the method:
All channel constructs were expressed in Xenopus laevis oocytes and studied using the two-electrode voltage clamp technique (TEVC) following 1–4 days of incubation after cRNA injection. The animal care and experimental procedures were performed in accordance with the Guide for the Care and Use of Laboratory Animals and were approved by the Animal Care and Use Committee of the National Institute of Neurological Disorders and Stroke (Animal protocol number 1253–17). Oocytes were removed surgically and incubated with agitation for 1 hr in a solution containing (in mM) 82.5 NaCl, 2.5 KCl, 1 MgCl2, 5 HEPES, pH 7.6 (with NaOH), and collagenase (2 mg/ml; Worthington Biochemical, Lakewood, NJ). […]
For temperature-activation experiments, calcium-activated chloride currents were minimized by using calcium-free solution containing 30 µM Caccinh-A01 and recording at negative membrane voltages. Heat stimuli were achieved by passing the external recording solution through glass capillary spirals immersed in a water bath maintained at about 70°C, and recordings were performed during constant perfusion with temperature measured using a thermistor (TA-29, Warner Instruments) located close to the cell. […] The mean I vs T relations were calculated by automatically binning each of the recordings in temperature intervals of 2°C, and averaging a single data point within each interval per cell. […]

Experiment [5] concerns the target TRPV3-A606V (Mus musculus, UniProt Q8K424, A606V). On the procedure:
(§2) All channel constructs were expressed in Xenopus laevis oocytes and studied using the two-electrode voltage clamp technique (TEVC) following 1–4 days of incubation after cRNA injection. The animal care and experimental procedures were performed in accordance with the Guide for the Care and Use of Laboratory Animals and were approved by the Animal Care and Use Committee of the National Institute of Neurological Disorders and Stroke (Animal protocol number 1253–17). Oocytes were removed surgically and incubated with agitation for 1 hr in a solution containing (in mM) 82.5 NaCl, 2.5 KCl, 1 MgCl2, 5 HEPES, pH 7.6 (with NaOH), and collagenase (2 mg/ml; Worthington Biochemical, Lakewood, NJ). Defolliculated oocytes were injected with cRNA for each of the constructs and incubated at 17°C in a solution containing (in mM) 96 NaCl, 2 KCl, 1 MgCl2, 1.8 CaCl2, 5 HEPES, pH 7.6 (with NaOH), and gentamicin (50 μg/ml, GIBCO-BRL, Gaithersburg, MD). Oocyte membrane voltage was controlled using an OC-725C oocyte clamp (Warner Instruments, Hamden, CT). Data were filtered at 1–3 kHz and digitized at 20 kHz using pClamp software (Molecular Devices, Sunnyvale, CA) and a Digidata 1440A digitizer (Axon Instruments). Microelectrode resistances were 0.1–1 MΩ when filled with 3 M KCl. For recording TRP channel currents, the external recording solution contained (in mM) 100 KCl, 10 HEPES, pH 7.6 (with KOH). Experiments were performed at room temperature (~22°C), except as indicated otherwise. […] Current time courses were obtained by stepping membrane voltage every 2 s from a holding potential of 0 mV to either −60 or +60 mV for 100 ms, and plotting the mean steady-state current at the end of each voltage step as a function of total recording time. I-V relations were obtained similarly, but voltage was stepped every 2 s to a different value, in 10 mV increments and starting at −60 mV.

Experiment [6] concerns the target TRPV3-V587L (Mus musculus, UniProt Q8K424, V587L). Conditions: -60 mV. As to the method:
as §2

The target in experiment [7] is TRPV3-4PM (Mus musculus, UniProt Q8K424, F625L/F656I/F666Y/V587L). On the procedure: as §2
Sequence of TRPV3-4PM (Q8K424 whole entry V587L/F625L/F656I/F666Y): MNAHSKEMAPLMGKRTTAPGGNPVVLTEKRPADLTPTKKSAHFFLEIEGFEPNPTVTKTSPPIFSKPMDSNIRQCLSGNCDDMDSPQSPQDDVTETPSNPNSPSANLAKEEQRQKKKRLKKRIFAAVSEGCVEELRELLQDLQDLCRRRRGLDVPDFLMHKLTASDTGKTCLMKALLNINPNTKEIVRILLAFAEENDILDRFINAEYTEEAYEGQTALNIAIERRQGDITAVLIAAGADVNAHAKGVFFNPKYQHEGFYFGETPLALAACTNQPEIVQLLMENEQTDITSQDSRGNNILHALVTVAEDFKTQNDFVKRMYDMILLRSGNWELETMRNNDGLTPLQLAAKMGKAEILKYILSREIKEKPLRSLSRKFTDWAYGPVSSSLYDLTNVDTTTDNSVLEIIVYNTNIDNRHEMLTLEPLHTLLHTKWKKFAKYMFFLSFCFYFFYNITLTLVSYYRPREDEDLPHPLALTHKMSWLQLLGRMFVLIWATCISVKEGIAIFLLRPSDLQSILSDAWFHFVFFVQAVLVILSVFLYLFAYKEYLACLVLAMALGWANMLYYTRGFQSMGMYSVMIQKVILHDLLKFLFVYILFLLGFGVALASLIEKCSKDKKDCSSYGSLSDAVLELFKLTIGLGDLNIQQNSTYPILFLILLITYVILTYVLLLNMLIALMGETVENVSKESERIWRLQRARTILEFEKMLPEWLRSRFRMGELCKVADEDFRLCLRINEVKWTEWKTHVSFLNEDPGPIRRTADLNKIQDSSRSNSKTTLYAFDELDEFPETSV

Sequence of TRPV3-A606V (Q8K424 whole entry A606V): as the sequence (Q8K424 whole entry V587L/F625L/F656I/F666Y) above, with L587V, A606V, L625F, I656F, Y666F counted along it
Sequence of TRPV3-V587L (Q8K424 whole entry V587L): as the sequence (Q8K424 whole entry V587L/F625L/F656I/F666Y) above, with L625F, I656F, Y666F counted along it

In the case of `C=C(C)[C@]12C[C@@H](C)[C@@]34O[C@](Cc5ccccc5)(O[C@@H]1[C@@H]3C=C(COC(=O)Cc1ccc(O)c(OC)c1)C[C@]1(O)C(=O)C(C)=C[C@@H]41)O2` [RTx, resiniferatoxin], the “saturating concentration of RTx” value in experiment [1] was 100 nM. Also, the “channel activation (current response)” value is listed as “detectable responses” in experiment [2] and “robust responses” in experiment [3].
A word on the EC50: it is the concentration needed to bring the measured effect to its halfway point. With `NCCOB(c1ccccc1)c1ccccc1` [2-APB, 2-aminoethoxydiphenyl borate], in experiment [4], the “channel activation (current response)” value is listed as “strong responses”. In addition, the results for the “s (slope) of Hill fit, 2-APB concentration-response” value in experiment [5] (-60 mV), in experiment [6] and in experiment [7] (-60 mV) were 2.72, 2.28 and 1.84, respectively. The half-maximal effective concentration (EC50) turned out to be 132 ± 7 µM in experiment [5] (read-out: apparent affinity (EC50) for activation by 2-APB, -60 mV, room temperature, Hill fit) and 443 ± 13 µM in experiment [6] (read-out: apparent affinity (EC50) for activation by 2-APB, room temperature, Hill fit). Moreover, in experiment [5] (relative to WT TRPV3), the “increase in the apparent affinity for 2-APB” value was ~ 3.5 fold and 3.5 fold. Also, in experiment [7] (relative to WT TRPV3), the “shift in the apparent affinity for 2-APB” value is ~ 2 fold and 2 fold.
